The test deals with eNK cells. As to the kind of experiment: Live cell confocal microscopy (UGATm) of antibody-dependent cellular cytotoxicity. The format is cell-based, human. The settings on record: eNK aggregated with uncoated and RTX-coated Raji cells, no LFA-1 blockade. The procedure: FIGS. 9A-9D. LFA-1 blockade increases bystander killing. Live cell confocal microscopy of antibody-dependent cellular cytotoxicity by eNK cells pre-treated with murine IgG1 mAb control (9A) or LFA-1 blocking mAb (clone TS1/22, 9B). Green, RTX-coated Raji cells (NK-inciting targets); yellow, uncoated Raji cells (bystanders); red, LysoTracker Red (lytic granules); blue, SYTOX Blue viability dye. NK cells were mixed with the target cells immediately before the imaging process and imaged every 4 min for 4 hours. […] Data represent combined results from three healthy donors. Standard 4-hour 51Cr cytotoxicity assay of NK cells treated with LFA-1-blocking mAb or murine IgG control (9D). Each dot represents an individual healthy donor.
To apply this concept in the context of physiologic antibody-dependent cell mediated cytotoxicity (ADCC) a human therapeutic monoclonal antibody, Rituximab (RTX) was used along with NK cell resistant Raji cells that naturally express the antigen recognized by RTX. […]
YTS-CD16 and eNK cells were incubated with 5 μM LysoTracker Red DND-99 (Thermo Fisher) for 30 min at 37° C. and washed. […] Emission was detected with HyD detectors, and images were collected in a single z-plane at one frame every 4 or 30 min for 120 min. […]

Regarding “Rituximab: human therapeutic monoclonal antibody against CD20, used to coat Raji cells for ADCC”, the “killing of RTX-coated versus uncoated Raji cells” value is recorded as “preferential killing of the RTX-coated Raji cells”.

(Values after US20200016200A1, “MODULATING CYTOTOXIC CELL LYTIC GRANULE POSITIONING TO PROMOTE DIFFUSE KILLING IN CELLULAR THERAPIES” (Baylor College of Medicine, priority 2016, published 2020).)
